From ChEMBL document CHEMBL1201862, “PubChem BioAssay data set” (2004)
Active and inactive are the calls of the source.

How the values were obtained:
Cytochrome P450 1A2 = target: T1, Cytochrome P450 1A2 (Homo sapiens, UniProt P05177);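 note: PubChem cytochrome P450 panel assay, CYP1A2 panel member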
T1 sequence (P05177 whole entry): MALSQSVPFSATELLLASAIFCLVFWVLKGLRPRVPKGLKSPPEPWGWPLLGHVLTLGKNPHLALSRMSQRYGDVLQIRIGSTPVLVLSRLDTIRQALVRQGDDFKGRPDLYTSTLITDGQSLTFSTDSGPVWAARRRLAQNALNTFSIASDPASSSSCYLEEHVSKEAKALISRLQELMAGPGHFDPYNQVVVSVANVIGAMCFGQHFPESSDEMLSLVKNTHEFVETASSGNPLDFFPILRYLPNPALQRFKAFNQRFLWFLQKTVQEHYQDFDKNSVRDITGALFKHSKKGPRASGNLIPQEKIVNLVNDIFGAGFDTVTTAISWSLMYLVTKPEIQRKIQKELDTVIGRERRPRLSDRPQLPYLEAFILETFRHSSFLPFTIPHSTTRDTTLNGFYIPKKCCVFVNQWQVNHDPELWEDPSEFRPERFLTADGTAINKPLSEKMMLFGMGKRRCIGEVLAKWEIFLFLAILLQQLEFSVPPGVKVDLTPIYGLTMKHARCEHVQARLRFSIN

[1] = target: T2, Corticotropin-releasing factor receptor 2/Corticotropin-releasing factor-binding protein (Homo sapiens, UniProt P24387+Q13324); experiment: activators of CRF receptor 2 with binding protein – uHTS hits, confirmation (AID 602473); type: functional; settings: read-out: EC50_Mean
T2 sequence (Q13324 whole entry): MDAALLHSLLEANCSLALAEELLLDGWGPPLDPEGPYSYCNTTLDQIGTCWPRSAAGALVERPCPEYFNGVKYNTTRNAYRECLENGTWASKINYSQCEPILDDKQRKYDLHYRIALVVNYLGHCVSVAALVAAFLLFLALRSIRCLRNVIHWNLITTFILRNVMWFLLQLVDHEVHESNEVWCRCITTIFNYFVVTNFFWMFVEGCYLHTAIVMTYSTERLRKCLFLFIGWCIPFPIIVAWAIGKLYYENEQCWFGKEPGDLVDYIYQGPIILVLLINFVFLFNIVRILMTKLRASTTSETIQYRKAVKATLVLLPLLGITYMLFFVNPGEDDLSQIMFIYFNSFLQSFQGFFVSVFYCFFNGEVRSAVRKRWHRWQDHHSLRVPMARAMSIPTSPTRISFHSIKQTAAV
T2 sequence (P24387 whole entry): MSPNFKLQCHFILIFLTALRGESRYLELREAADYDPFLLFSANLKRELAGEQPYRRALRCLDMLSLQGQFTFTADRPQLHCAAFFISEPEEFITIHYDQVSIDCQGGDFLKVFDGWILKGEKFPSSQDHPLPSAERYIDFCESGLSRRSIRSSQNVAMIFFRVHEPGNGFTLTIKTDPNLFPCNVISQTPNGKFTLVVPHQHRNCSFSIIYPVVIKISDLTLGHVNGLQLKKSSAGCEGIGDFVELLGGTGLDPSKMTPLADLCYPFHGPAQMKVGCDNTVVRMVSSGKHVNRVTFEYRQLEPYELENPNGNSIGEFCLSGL

Vero [2] = experiment: cells; type: functional, cell-based; settings: Chlorocebus sabaeus
Vero [3] = experiment: cells; type: functional; settings: Chlorocebus sabaeus
cells [4] = experiment: cells
[5] = viability of uninfected HEp-2 cells – cell-based, HTS, cytotoxicity control for RSV inhibitor project, dose response (AID 2410); type: functional; settings: human respiratory syncytial virus
Prothrombin = Prothrombin (Homo sapiens, UniProt P00734); experiment: Thrombin 1536 HTS Dose Response Confirmation. [Related pubchem assays: 1046 (Thrombin 1536 HTS; hits were confirmed in this assay)]; type: functional
[6] = HEK-293T cell viability reduction – luminescence, B-cell screen hits, cytotoxicity control for BCR NF-kB inhibitor project, dose response (AID 489021); type: functional, cell-based;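 note: HEK-293T cells carrying an NF-kB luciferase reporter; cells exposed to compound for about 14 hours before viability readout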
[7] = target: Ras and Rab interactor 1/Tyrosine-protein kinase ABL1 (Homo sapiens, UniProt P00519+Q13671); type: functional;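 note: biochemical TR-FRET dose-response test measuring inhibition of binding between Rin1 and Abl proteins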
Chain of Ras and Rab interactor 1/Tyrosine-protein kinase ABL1 (P00519 whole entry): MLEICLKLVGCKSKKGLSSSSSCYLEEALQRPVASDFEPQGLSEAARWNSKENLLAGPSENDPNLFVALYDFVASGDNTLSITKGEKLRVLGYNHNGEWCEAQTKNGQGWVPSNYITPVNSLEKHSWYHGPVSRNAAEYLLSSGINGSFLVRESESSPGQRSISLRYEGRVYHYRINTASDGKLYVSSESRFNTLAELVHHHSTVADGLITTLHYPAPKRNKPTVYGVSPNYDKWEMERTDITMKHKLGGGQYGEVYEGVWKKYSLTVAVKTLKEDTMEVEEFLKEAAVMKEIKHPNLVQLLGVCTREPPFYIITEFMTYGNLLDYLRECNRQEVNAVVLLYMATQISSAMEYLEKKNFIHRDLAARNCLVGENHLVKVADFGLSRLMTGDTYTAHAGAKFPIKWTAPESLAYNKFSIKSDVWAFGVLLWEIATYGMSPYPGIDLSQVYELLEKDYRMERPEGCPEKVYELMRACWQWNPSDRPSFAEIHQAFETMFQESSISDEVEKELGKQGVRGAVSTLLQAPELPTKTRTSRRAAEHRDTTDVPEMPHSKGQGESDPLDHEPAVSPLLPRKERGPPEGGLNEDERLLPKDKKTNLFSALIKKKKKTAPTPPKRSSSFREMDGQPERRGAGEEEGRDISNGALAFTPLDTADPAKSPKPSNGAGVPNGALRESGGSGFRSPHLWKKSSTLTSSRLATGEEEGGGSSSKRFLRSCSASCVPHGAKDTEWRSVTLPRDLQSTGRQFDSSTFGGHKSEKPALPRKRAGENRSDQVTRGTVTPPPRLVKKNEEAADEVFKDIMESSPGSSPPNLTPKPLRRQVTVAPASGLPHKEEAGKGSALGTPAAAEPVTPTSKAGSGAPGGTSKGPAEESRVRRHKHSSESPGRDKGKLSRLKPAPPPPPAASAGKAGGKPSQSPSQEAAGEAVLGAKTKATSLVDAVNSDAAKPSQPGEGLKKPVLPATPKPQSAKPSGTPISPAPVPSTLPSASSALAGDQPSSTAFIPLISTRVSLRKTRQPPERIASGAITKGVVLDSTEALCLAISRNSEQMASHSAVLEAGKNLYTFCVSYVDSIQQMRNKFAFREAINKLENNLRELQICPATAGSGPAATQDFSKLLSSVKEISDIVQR
Chain of Ras and Rab interactor 1/Tyrosine-protein kinase ABL1 (Q13671 whole entry): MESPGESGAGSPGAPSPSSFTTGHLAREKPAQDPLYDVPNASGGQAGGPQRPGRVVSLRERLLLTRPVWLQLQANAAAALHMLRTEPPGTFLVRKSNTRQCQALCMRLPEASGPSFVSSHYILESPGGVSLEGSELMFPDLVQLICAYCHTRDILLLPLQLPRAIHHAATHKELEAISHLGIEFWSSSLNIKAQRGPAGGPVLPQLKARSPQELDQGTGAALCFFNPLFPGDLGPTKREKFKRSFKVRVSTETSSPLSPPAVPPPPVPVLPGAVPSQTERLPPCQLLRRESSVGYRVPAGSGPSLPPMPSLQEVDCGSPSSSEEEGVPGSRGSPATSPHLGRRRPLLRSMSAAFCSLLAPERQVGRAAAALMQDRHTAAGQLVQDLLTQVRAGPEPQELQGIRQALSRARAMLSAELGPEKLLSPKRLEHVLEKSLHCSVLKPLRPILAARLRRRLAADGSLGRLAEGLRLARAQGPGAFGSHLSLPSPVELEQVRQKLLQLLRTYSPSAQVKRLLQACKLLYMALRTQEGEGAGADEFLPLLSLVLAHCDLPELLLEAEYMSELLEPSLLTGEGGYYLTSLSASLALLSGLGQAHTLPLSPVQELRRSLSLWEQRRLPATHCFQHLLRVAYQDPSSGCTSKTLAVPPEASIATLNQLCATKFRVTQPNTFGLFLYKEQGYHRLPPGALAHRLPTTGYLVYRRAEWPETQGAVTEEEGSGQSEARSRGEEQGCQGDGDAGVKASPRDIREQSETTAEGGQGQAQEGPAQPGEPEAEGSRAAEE

[8] = target: T3, Short transient receptor potential channel 4 (Mus musculus, UniProt Q9QUQ5); experiment: calcium entry via TRPC4 opening agents – cell-based, HEK293 TRPC4/mu-opioid, Fluo-4 calcium, dose response (AID 434937); type: functional
T3 sequence (Q9QUQ5 whole entry): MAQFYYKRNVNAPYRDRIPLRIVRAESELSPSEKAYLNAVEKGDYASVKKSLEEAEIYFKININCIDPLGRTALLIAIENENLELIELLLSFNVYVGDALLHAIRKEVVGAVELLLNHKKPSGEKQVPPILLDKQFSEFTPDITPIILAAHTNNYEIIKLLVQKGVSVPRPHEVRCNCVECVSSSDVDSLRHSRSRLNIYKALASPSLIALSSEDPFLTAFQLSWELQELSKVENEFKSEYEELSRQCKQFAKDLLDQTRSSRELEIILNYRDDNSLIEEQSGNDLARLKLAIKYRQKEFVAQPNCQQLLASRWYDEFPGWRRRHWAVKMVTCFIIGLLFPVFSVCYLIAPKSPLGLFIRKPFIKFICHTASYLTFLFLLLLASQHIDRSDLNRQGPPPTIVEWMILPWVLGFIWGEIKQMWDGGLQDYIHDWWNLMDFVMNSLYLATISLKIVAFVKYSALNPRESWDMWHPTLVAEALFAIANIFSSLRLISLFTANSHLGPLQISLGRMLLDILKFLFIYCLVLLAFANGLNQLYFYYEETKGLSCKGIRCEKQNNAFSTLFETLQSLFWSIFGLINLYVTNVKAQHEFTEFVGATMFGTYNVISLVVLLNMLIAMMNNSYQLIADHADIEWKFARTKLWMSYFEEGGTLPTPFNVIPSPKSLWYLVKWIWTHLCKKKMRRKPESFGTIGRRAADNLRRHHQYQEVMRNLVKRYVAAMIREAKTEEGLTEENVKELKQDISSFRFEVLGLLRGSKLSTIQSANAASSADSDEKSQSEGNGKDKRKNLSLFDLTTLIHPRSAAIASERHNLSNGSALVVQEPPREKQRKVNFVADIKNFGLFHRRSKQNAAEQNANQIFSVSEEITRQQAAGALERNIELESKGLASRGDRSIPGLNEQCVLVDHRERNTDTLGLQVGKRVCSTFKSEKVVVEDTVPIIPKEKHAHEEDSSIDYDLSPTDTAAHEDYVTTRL

[9] = system: Streptococcus sp. 'group A'; experiment: Streptococcus pyogenes SK(-)GAS viability under kanamycin – luminescence, BacTiterGlo, confirmation, counter-screen for streptokinase expression inhibitor project, dose response (AID 1900); type: functional, organism-based
Beta-galactosidase = Beta-galactosidase (Escherichia coli, UniProt Q8VNN2); experiment: detection-enzyme interference by beta-gal modulators – biochemical, E. coli enzyme, set 3, artefact control for CCR6 antagonist project, dose response (AID 504712); type: functional
Chain of Beta-galactosidase (Q8VNN2 whole entry): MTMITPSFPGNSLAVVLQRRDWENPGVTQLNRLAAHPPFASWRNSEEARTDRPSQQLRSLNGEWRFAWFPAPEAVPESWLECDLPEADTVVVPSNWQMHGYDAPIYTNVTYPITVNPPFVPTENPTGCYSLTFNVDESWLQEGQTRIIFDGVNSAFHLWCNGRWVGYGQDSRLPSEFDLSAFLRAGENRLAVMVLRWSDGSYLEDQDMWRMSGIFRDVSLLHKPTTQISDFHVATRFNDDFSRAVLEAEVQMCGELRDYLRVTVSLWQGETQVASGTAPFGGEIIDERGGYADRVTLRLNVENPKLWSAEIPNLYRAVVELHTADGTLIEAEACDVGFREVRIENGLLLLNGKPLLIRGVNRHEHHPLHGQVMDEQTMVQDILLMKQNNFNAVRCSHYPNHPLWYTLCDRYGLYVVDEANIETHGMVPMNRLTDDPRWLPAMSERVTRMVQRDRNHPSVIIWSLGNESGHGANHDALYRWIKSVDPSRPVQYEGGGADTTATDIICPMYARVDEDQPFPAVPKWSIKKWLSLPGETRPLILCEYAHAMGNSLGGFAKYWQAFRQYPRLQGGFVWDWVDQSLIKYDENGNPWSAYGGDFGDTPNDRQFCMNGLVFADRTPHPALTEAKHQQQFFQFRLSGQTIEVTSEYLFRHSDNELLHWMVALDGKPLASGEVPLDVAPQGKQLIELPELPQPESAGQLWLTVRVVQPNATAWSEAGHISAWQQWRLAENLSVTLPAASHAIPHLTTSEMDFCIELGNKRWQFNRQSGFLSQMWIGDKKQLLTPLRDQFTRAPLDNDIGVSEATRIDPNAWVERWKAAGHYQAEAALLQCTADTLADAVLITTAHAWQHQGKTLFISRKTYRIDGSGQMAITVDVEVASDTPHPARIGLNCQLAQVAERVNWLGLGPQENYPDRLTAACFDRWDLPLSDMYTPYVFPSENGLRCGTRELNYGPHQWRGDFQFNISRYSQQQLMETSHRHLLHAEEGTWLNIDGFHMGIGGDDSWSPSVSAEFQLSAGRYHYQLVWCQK

Streptococcus = experiment: GAS UMAA2166 growth inhibition – luminescence, BacTiterGlo, counter-screen for streptokinase expression inhibitor project, dose response (AID 1915); type: functional, organism-based;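 note: potency for reduction of bacterial viability or growth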
[10] = target: Disintegrin and metalloproteinase domain-containing protein 17 (Homo sapiens, UniProt P78536); experiment: exosite inhibitors of ADAM17, dose response, biochemical (AID 743260)
Chain of Disintegrin and metalloproteinase domain-containing protein 17 (P78536 whole entry, the tested form may be a part): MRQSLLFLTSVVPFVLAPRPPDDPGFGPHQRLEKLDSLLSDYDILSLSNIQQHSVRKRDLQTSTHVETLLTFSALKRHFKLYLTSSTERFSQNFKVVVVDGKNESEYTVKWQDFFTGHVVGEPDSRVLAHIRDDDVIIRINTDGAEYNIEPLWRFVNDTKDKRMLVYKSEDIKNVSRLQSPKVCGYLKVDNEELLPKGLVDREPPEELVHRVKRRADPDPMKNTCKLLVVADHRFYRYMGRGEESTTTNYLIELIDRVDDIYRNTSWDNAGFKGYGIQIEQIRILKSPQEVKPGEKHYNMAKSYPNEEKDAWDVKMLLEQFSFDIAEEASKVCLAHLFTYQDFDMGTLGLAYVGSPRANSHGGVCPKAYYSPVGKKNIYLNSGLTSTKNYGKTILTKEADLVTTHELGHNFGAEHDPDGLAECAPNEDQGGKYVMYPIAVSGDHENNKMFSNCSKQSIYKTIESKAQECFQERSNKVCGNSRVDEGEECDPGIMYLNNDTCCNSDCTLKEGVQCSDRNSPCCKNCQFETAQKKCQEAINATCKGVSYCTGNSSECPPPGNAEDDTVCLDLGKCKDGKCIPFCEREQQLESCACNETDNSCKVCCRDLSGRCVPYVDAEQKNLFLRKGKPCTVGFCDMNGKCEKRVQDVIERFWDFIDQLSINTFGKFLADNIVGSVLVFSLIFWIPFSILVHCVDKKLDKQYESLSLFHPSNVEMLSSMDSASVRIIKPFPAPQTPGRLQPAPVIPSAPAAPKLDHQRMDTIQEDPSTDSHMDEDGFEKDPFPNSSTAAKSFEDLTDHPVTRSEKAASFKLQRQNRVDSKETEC

[11] = inhibition of ADAM10 peptide cleavage – biochemical, FRET peptide substrate, recombinant human ADAM10, selectivity assay for ADAM17 exosite inhibitor project, dose response (AID 743259);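 note: ADAM10 enzyme cleaving a FRET peptide substrate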
Beta Lactamase = Beta Lactamase (Pseudomonas aeruginosa, UniProt Q932Y6); experiment: BLA reporter interference, concentration series – BLA reporter cells, FRET fluorescence, artefact control for TLR9-MyD88 binding inhibitor project, dose response (AID 588341); type: cell-based;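 note: cell based assay in CHO-K1 cells stably expressing beta-lactamase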
Chain of Beta Lactamase (Q932Y6 whole entry, the tested form may be a part): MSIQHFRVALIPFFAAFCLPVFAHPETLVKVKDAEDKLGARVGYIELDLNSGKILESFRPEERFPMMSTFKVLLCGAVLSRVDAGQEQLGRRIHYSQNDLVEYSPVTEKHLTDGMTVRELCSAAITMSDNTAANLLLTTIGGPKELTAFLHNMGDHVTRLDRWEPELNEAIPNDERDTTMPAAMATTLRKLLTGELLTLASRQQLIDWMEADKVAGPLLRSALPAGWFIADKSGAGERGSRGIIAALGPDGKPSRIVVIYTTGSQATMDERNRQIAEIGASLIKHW

CHO = CHO cell viability loss, potency – luminescence, cytotoxicity control for TLR9-MyD88 binding inhibitor project, dose response (AID 588339); type: functional, cell-based, hamster; settings: Cricetulus griseus;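 note: CHO cells stably coexpressing TLR9 and MyD88 fusions from primary screen; compound exposure lasted 48 hours before viability readout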
[12] = Trypanosoma cruzi growth suppression in host cells – NIH3T3 host cells, beta-gal luminescence, confirmation (AID 2044); type: functional, cell-based;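 note: intracellular parasites grown in NIH/3T3 mouse fibroblasts as host cells; luminescent beta-galactosidase reporter signal from transgenic T. cruzi replicating inside host cells; inhibitors lower the luminescence signal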
[13] = NIH3T3 cell viability loss – ATP luminescence, mouse fibroblasts, counter-screen, dose response (AID 2010); type: functional, cell-based;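 note: cells exposed to compound for about 90 hours before reading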
Galanin receptor type 3 = target: T4, Galanin receptor type 3 (Homo sapiens, UniProt O60755); experiment: Fluorescence-based cell-based primary high throughput dose response assay to identify antagonists of the Galanin Receptor 3 (GalR3).; type: functional
T4 sequence (O60755 whole entry): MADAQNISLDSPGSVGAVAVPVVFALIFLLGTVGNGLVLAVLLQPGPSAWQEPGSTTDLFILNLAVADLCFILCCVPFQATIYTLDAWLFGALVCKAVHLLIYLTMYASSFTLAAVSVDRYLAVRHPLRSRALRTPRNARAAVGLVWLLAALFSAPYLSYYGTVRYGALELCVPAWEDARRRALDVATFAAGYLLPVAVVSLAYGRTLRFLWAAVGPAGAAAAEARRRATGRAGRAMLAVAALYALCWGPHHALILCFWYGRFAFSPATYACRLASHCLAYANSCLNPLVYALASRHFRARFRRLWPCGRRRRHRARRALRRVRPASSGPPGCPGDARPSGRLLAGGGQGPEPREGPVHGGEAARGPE

cells [14] = type: functional, cell-based; settings: HEK-CNG
[15] = microbe, parasite or virus in culture; type: functional; settings: Mycobacterium tuberculosis
[16] = Luminescence Cell-Based Dose Confirmation HTS to Identify Activators of 5'UTR Stem-Loop Driven Alpha-Synuclein mRNA Translation in H4 Neuroglioblastoma Cells. [Related pubchem assays: 1829 (Project Summary), 1814 (Primary HTS)]; type: functional
[17] = Luminescence Cell-Based Dose Response HTS to Identify Activators of Luciferase Translation or Activity in H4 […] Cells. [Related pubchem assays: 1829 (Project Summary), 1814 (Primary HTS)]; type: functional
H4 = experiment: Luminescence Cell-Based Dose Response HTS to Identify Activators of 5'UTR Stem-Loop Driven Prion Protein mRNA Translation in H4 Neuroglioblastoma Cells. [Related pubchem assays: 1829 (Project Summary), 1814 (Primary HTS)]; type: functional; settings: Homo sapiens
[18] = Luminescence-based cell-based high throughput dose response assay to identify activators of the DAF-12 from the parasite S. stercoralis (ssDAF-12).; type: functional
[19] = OVCAR8 cell viability loss – plate reader, dry powder samples, PAX8 project, dose response (AID 743197); type: functional, cell-based; settings: OVCAR-8
Paired box protein Pax-8 = Paired box protein Pax-8 (Homo sapiens, UniProt Q06710); experiment: PAX8 transcriptional activity inhibition in RMG-I – RMG-I cells, luciferase, cherry-pick, dose response (AID 687027); type: functional, cell-based;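 note: luciferase reporter driven by Pax8 target thyroperoxidase promoter measured by SteadyGlo luminescence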
Chain of Paired box protein Pax-8 (Q06710 whole entry): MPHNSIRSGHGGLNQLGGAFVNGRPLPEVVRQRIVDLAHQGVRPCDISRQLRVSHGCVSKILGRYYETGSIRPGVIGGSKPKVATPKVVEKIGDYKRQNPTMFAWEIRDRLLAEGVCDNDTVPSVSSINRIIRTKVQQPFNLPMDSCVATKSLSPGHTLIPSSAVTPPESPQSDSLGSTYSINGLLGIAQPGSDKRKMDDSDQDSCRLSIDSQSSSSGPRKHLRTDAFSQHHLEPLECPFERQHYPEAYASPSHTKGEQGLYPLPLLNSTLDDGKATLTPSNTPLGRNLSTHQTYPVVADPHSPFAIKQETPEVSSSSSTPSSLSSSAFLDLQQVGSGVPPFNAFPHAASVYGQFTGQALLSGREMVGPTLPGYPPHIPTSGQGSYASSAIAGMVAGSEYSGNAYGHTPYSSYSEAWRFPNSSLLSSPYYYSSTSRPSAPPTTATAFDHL

[20] = P. falciparum Dd2 growth inhibitors, dose response, SYBR Green, cherry-picked samples (AID 1159567); type: functional, cell-based
[21] = OVCAR-3 cell viability loss – plate reader, dry powder samples, PAX8 inhibitor project, dose response (AID 743044); type: functional, cell-based

c1nnc(NCNc2nncs2)s1
AC50 (Cytochrome P450 1A2): 2 µM (inconclusive) | EC50 [1]: > 53 µM (inactive) | IC50 (Vero [2]): > 25 µM (active) | CC50 (Vero [3]): > 25 µM (active)

Cc1cc(NC(=O)COC(=O)c2c(Cl)cccc2Cl)no1
IC50 (Vero [2]): > 25 µM (active) | IC50 (cells [4]): 21.8 µM (active) | CC50 [5]: > 50 µM (active)

Cc1ccc2nc(NC(=O)CSCC(=O)OCC(=O)c3ccc(Br)cc3)sc2c1
IC50 (Prothrombin): 0.0393 µM (active) | IC50 [6]: > 80 µM (inactive)

COc1ccc(CC(=O)Oc2ccc(C)cc2Br)cc1OC
IC50 [7]: 6.87 µM (active)

Cc1ccc(C(=O)NNC(=S)NC(=O)c2ccccc2)cc1
EC50 [8]: 2.66 µM (active) | EC50 [9]: 1.47 µM (active) | IC50 (Vero [2]): 12 µM (active) | IC50 (Beta-galactosidase): > 66.6 µM (inactive) | EC50 (Streptococcus): 4.44 µM (active) | CC50 (Vero [3]): 24.8 µM (active)

CC12CCC(=O)N1C(C(=O)N1CCN(S(=O)(=O)c3ccc(Br)cc3Cl)CC1)CS2 (centres undefined)
IC50 [7]: 17 µM (inactive)

O=C(OCc1cnc(Cl)s1)c1cccc(Cl)c1Cl
IC50 [10]: > 69.6 µM (inactive) | IC50 [11]: > 69.6 µM (inactive)

Cn1c(-c2c(N)n(-c3ccccc3)c3nc4ccccc4nc23)nc2ccccc21
IC50 (Beta Lactamase): 3.85 µM (active) | IC50 (CHO): > 49.7 µM (inactive)

CC1(C)CC2CC(C)(CN2S(=O)(=O)c2ccc(C(=O)Nc3ccc(S(=O)(=O)N4CCOCC4)cc3)cc2)C1 (centres undefined)
EC50 [12]: 1.83 µM (active) | EC50 [13]: > 60 µM (not active) | IC50 (Galanin receptor type 3): 0.96 µM (active) | IC50 [6]: > 80 µM (inactive) | EC50 (cells [14]): > 29.9 µM (inactive)

CC(C)C1N=C(c2ccc3c(c2)OCO3)CC(c2ccccc2O)N1 (centres undefined)
CC50 [15]: 13.8 µM (active) | IC50 (Vero [2]): > 25 µM (active) | EC50 [16]: 16.6 µM (active) | EC50 [17]: 15.4 µM (active) | EC50 (H4): 4.62 µM (active) | CC50 (Vero [3]): 14.7 µM (active)

Nc1ccccc1C=C1Cc2ccccc2C1=O
IC50 [18]: > 67.6 µM (inactive)

OC(c1ccc(F)c(F)c1)c1nc(-c2cccc(C(F)(F)F)c2)cs1 (centres undefined)
IC50 [10]: 50.5 µM (inactive) | IC50 [11]: 12.1 µM (inactive)

CC(=O)c1cccc(-c2ccnc3c2CC(C(=O)NCc2ccc(N4CCN(C)CC4)cc2)O3)c1 (centres undefined)
IC50 [7]: 29.9 µM (inactive)

COc1cc(/C=N/NC(=O)CSc2ccccn2)ccc1OC(C)C
IC50 [7]: 19.1 µM (inactive)

Oc1nc2ccccc2n1C1CCN(C(c2nnnn2C2CCCC2)C2CC2)CC1 (centres undefined)
IC50 [7]: 17.3 µM (inactive)

CC(C)CC#Cc1ccc2c(c1)O[C@H](CN(C)S(=O)(=O)c1ccc(F)cc1)[C@@H](C)CN([C@@H](C)CO)S2(=O)=O
AC50 [19]: > 70 µM (inactive) | AC50 (Paired box protein Pax-8): 10.3 µM (active) | AC50 [20]: 5.25 µM (active) | AC50 [21]: 49.7 µM (active)

C[C@@H]1CN([C@H](C)CO)C(=O)c2cc(NC(=O)Cc3ccccc3)ccc2O[C@@H](C)CCCCO[C@H]1CN(C)Cc1ccc(Cl)c(Cl)c1
AC50 [19]: > 70 µM (inactive) | AC50 [21]: 28.2 µM (active)
